Here are results for 1 compound from patent publication US20140234253A1, “Combination Treatments For Hepatitis C” (GlaxoSmithKline LLC, priority 2011, published 2014).

The nature of the data set: solubility of suspension in buffer. Type of data set: physicochemical. The note with it: aqueous buffer; in the buffer at 37° C. when implanted.

Values after ≈ are worked out from the molar mass of the structure shown.

What is called solubility is the concentration that dissolves in the medium under given conditions. On to `CC1(C)O[C@@H]2C[C@H]3[C@@H]4CCC5=CC(=O)C=C[C@]5(C)[C@@]4(F)[C@@H](O)C[C@]3(C)[C@]2(C(=O)CO)O1` [triamcinolone acetonide], for which the solubility is around 19 µg/mL (≈ 43.7 µM).
